{
  "source": "patent US20220202943A1",
  "about": "“TOPICAL COMPOSITIONS FOR SKIN COMPRISING A CELL PENETRATING PEPTIDE AND METHODS OF USING THE SAME” (ImDerma Laboratories Co. Ltd., priority 2020, published 2022)",
  "format_in_all_cases": "cell-based, human",
  "key": {"HaCaT cells [1]": {"tested_on": "HaCaT cells", "test": "Cell viability of HaCaT cells, MTT assay", "settings": "1.0 μM peptide X", "protocol": "(§1) Following the removal of DMEM medium in the 96-well plate, 100 uL of 1 μM peptide X and 100 uL of tea polyphenols (0.01%, 0.05% or 0.1%), were added in the 96-well plate. After 2, 4, 6, 16 or 24 hours of reaction, the peptide X and tea polyphenols were removed and then DMEM medium with 1.2 mM H2O2 was added for 2 hours of reaction in dark to induce intracellular ROS in the HaCaT cells. After the above reaction, DMEM medium with 1.2 mM H2O2 was removed from the 96-well plate and 100 μL of 10 μM DCFDA (2′,7′—dichlorofluorescin diacetate) was added for half an hour of reaction to measure the levels of intracellular ROS in HaCaT cells using fluorescence assay. Following the removal of DCFDA, the treated cells were washed with 200 μL of PBS. Subsequently, after PBS was removed, 100 μL of transparent DMEM medium was added and absorbance at 488/520 nm was measured to determinate the levels of intracellular ROS. After the above measurement, the transparent DMEM medium was removed and then 100 μL of 1 mg/mL MTT was added for 2 hours of reaction; subsequently, the absorbance at 595 nm was measured for calculating the cell viability.\nEUK134™ (0.12 μM, 0.23 μM or 2.35 μM) or a mixture of peptide X (1 μM) and EUK134™ (0.12 μM or 0.23 μM), were added in HaCaT cells for 8 hours of reaction. […]"}, "type I pro-collagen": {"tested_on": "type I pro-collagen", "test": "Type I pro-collagen level in Hs68 cells, ELISA", "settings": "TGF-β 10 ng/mL", "protocol": "In order to confirm if the peptide X is capable of delivering TGF-β into skin cells, Hs68 cells were seeded in a 6-well plate. Following the removal the medium in the 6-well plate, TGF-β (10 ng/mL), peptide X (1.0 μM) or a mixture of TGF-β (10 ng/mL) and peptide X (1.0 μM) were added in the 6-well plate. After 6, 12 or 24 hours of reaction, the level of type I pro-collagen in the cells was confirmed using ELISA kit with human pro-collagen 1 alpha 1 capture antibody and human pro-collagen 1 alpha 1 detector antibody."}, "HaCaT cells [2]": {"tested_on": "HaCaT cells", "test": "Intracellular ROS induced by H2O2 in HaCaT cells, DCFDA fluorescence assay", "protocol": "as §1\nEUK134™ (0.12 μM, 0.23 μM or 2.35 μM) or a mixture of peptide X (1 μM) and EUK134™ (0.12 μM or 0.23 μM), were added in HaCaT cells for 8 hours of reaction. Following the removal of EUK134™ and the mixture of peptide X and EUK134™, 1.2 mM H2O2 was added to induce intracellular ROS in the HaCaT cells and then the levels of intracellular ROS were detected using DCFDA. After the detection of the levels of intracellular ROS, the cell viability was confirmed using MTT assay.\nResveratrol (6.25 μM, 12.5 μM or 25 μM) or a mixture of peptide X (1 μM) and resveratrol (6.25 μM, 12.5 μM or 25 μM), were added in HaCaT cells for different time of reaction. Following the removal of resveratrol and the mixture of peptide X and resveratrol, 1.2 mM H2O2 was added to induce intracellular ROS in the HaCaT cells and then the levels of intracellular ROS were detected using DCFDA. After the detection of the levels of intracellular ROS, the cell viability was confirmed using MTT assay."}},
  "note": "Where no end group is shown, it is not given here.",
  "data": [
    {"molecule": "NYRWRCKNQN [peptide X, Asn-Tyr-Arg-Trp-Arg-Cys-Lys-Asn-Gln-Asn]", "values": [
      {"measurement": "cytotoxicity to HaCaT cells", "setting": "HaCaT cells [1]", "result": "no cytotoxicity"}
    ]},
    {"molecule": "TGF-β", "values": [
      {"measurement": "increase of expression of type I pro-collagen", "setting": "type I pro-collagen", "result": "~20", "unit": "%"}
    ]},
    {"molecule": "ethylbisiminomethylguaiacol manganese chloride [EUK134™]", "values": [
      {"measurement": "reduction of level of intracellular ROS induced by H2O2", "setting": "HaCaT cells [2]; 0.12 μM EUK134 without peptide X, 8 hours of treatment", "result": 50, "unit": "%"},
      {"measurement": "reduction of level of intracellular ROS", "setting": "HaCaT cells [2]; 0.23 μM EUK134 without peptide X, 8 hours of treatment", "result": 50, "unit": "%"},
      {"measurement": "level of intracellular ROS induced by H2O2", "setting": "HaCaT cells [2]; EUK134 0.12, 0.23 or 2.35 μM without peptide X, with the increase of concentration, 8 hours", "result": "slightly decreased"}
    ]},
    {"molecule": "Oc1ccc(/C=C/c2cc(O)cc(O)c2)cc1", "note": "[resveratrol, reference compound]", "values": [
      {"measurement": "reduction of level of intracellular ROS induced by H2O2", "setting": "HaCaT cells [2]; resveratrol 6.25, 12.5 or 25 μM without peptide X, no significant difference among concentrations", "result": "75˜80%"}
    ]}
  ]
}
